Values joined by “and” are separate entries in the source; they are usually repeats but may differ in a detail not shown here. Identical values can stand only once. Toxic doses and inconclusive results are not listed. No stated cut-off is given here; in the data, active means T/C of 150% or more; inactive means T/C below 125%.
System: L1210 leukemia ip in BDF1 mice, survival T/C
Assay: NCI In Vivo Anticancer Drug Screen. Data for tumor model L1210 Leukemia (intraperitoneal) in B6D2F1 (BDF1) mice
Conditions: endpoint: mean survival time, higher = longer survival
Outline: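 Value reflects the ratio of survival in compound-treated mice to survival in vehicle-treated controls, with both groups carrying the same transplanted tumor.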

[1] = dose: 100.0 mg/kg/injection, schedule: Q01DX001 (ip), vehicle: saline with Tween-80
[2] = dose: 200.0 mg/kg/injection, schedule: Q01DX001 (ip), vehicle: saline with Tween-80
[3] = dose: 400.0 mg/kg/injection, schedule: Q01DX001 (ip), vehicle: saline with Tween-80
[4] = dose: 100.0 mg/kg/injection, schedule: Q04DX003 (ip), vehicle: saline with Tween-80
[5] = dose: 200.0 mg/kg/injection, schedule: Q04DX003 (ip), vehicle: saline with Tween-80
[6] = dose: 400.0 mg/kg/injection, schedule: Q04DX003 (ip), vehicle: saline with Tween-80
[7] = dose: 100.0 mg/kg/injection, schedule: Q01DX001 (ip), vehicle: carboxymethylcellulose (CMC)
[8] = dose: 200.0 mg/kg/injection, schedule: Q01DX001 (ip), vehicle: carboxymethylcellulose (CMC)
[9] = dose: 400.0 mg/kg/injection, schedule: Q01DX001 (ip), vehicle: carboxymethylcellulose (CMC)
[10] = dose: 50.0 mg/kg/injection, schedule: Q04DX002 (ip), vehicle: Klucel (hydroxypropylcellulose) (HPC)
[11] = dose: 100.0 mg/kg/injection, schedule: Q04DX002 (ip), vehicle: Klucel (hydroxypropylcellulose) (HPC)
[12] = dose: 200.0 mg/kg/injection, schedule: Q04DX002 (ip), vehicle: Klucel (hydroxypropylcellulose) (HPC)
[13] = dose: 100.0 mg/kg/injection, schedule: Q01DX009 (ip), vehicle: Klucel (hydroxypropylcellulose) (HPC)
[14] = dose: 100.0 mg/kg/injection, schedule: Q04DX003 (ip), vehicle: Klucel (hydroxypropylcellulose) (HPC)
[15] = dose: 200.0 mg/kg/injection, schedule: Q01DX009 (ip), vehicle: Klucel (hydroxypropylcellulose) (HPC)
[16] = dose: 200.0 mg/kg/injection, schedule: Q04DX003 (ip), vehicle: Klucel (hydroxypropylcellulose) (HPC)
[17] = dose: 400.0 mg/kg/injection, schedule: Q01DX009 (ip), vehicle: Klucel (hydroxypropylcellulose) (HPC)
[18] = dose: 400.0 mg/kg/injection, schedule: Q04DX003 (ip), vehicle: Klucel (hydroxypropylcellulose) (HPC)
[19] = dose: 50.0 mg/kg/injection, schedule: Q01DX001 (ip), vehicle: saline
[20] = dose: 100.0 mg/kg/injection, schedule: Q01DX001 (ip), vehicle: saline
[21] = dose: 200.0 mg/kg/injection, schedule: Q01DX001 (ip), vehicle: saline
[22] = dose: 400.0 mg/kg/injection, schedule: Q01DX001 (ip), vehicle: saline
[23] = dose: 12.5 mg/kg/injection, schedule: Q04DX003 (ip), vehicle: Klucel (hydroxypropylcellulose) (HPC)
[24] = dose: 100.0 mg/kg/injection, schedule: Q01DX001 (ip), vehicle: Klucel (hydroxypropylcellulose) (HPC)
[25] = dose: 200.0 mg/kg/injection, schedule: Q01DX001 (ip), vehicle: Klucel (hydroxypropylcellulose) (HPC)
[26] = dose: 400.0 mg/kg/injection, schedule: Q01DX001 (ip), vehicle: Klucel (hydroxypropylcellulose) (HPC)
[27] = dose: 100.0 mg/kg/injection, schedule: Q04DX003 (ip), vehicle: saline

Measured: T/C

Cc1ccc(S(=O)(=O)N(CC(=O)O)Cc2ccccc2)cc1
inactive: dose: 25.0 mg/kg/injection, schedule: Q01DX009 (ip), vehicle: sodium bicarbonate 104 % of control | dose: 50.0 mg/kg/injection, schedule: Q01DX009 (ip), vehicle: sodium bicarbonate 100 % of control | [1] 100 % of control | dose: 100.0 mg/kg/injection, schedule: Q01DX009 (ip), vehicle: saline with Tween-80 104 % of control | dose: 100.0 mg/kg/injection, schedule: Q01DX009 (ip), vehicle: sodium bicarbonate 98 % of control | [2] 97 % of control | dose: 200.0 mg/kg/injection, schedule: Q01DX009 (ip), vehicle: saline with Tween-80 110 % of control | dose: 200.0 mg/kg/injection, schedule: Q01DX009 (ip), vehicle: sodium bicarbonate 98 % of control | [3] 95 % of control | dose: 400.0 mg/kg/injection, schedule: Q01DX009 (ip), vehicle: saline with Tween-80 95 % of control and 112 % of control | dose: 400.0 mg/kg/injection, schedule: Q01DX009 (ip), vehicle: sodium bicarbonate 97 % of control | dose: 800.0 mg/kg/injection, schedule: Q01DX009 (ip), vehicle: saline with Tween-80 92 % of control | dose: 1600.0 mg/kg/injection, schedule: Q01DX009 (ip), vehicle: saline with Tween-80 117 % of control

CN(C)c1ccc(N=C(C#N)C(=O)c2ccccc2)cc1
inactive: [4] 95 % of control | [5] 95 % of control | [6] 102 % of control

O=C1CC2(CC3(Cl)C(Cl)=C(Cl)C2(Cl)C3(Cl)Cl)C(=O)O1 (configuration not stated)
inactive: dose: 50.0 mg/kg/injection, schedule: Q01DX001 (ip), vehicle: carboxymethylcellulose (CMC) 100 % of control | [7] 102 % of control | [8] 102 % of control | [9] 102 % of control

O=C1C(c2ccccc2)CS(=O)(=O)CC1c1ccccc1 (configuration not stated)
inactive: [10] 101 % of control | [11] 99 % of control | [12] 96 % of control

CCCCCCCCCN(CCCC)CCCC
inactive: dose: 25.0 mg/kg/injection, schedule: Q01DX001 (ip), vehicle: saline with Tween-80 95 % of control | dose: 50.0 mg/kg/injection, schedule: Q01DX001 (ip), vehicle: saline with Tween-80 88 % of control | [1] 102 % of control

COc1nccc2ccccc12
inactive: [4] 94 % of control | [5] 92 % of control

COc1nn(C)c(=O)c2ncccc12
inactive: dose: 15.0 mg/kg/injection, schedule: Q01DX001 (ip), vehicle: carboxymethylcellulose (CMC) 93 % of control | dose: 30.0 mg/kg/injection, schedule: Q01DX001 (ip), vehicle: carboxymethylcellulose (CMC) 92 % of control

N#Cc1ccc2c(c1)Nc1ccccc1S2
inactive: [13] 101 % of control | [14] 103 % of control | [15] 99 % of control | [16] 92 % of control | [17] 89 % of control | [18] 105 % of control

CC(=O)OCC(OC(C)=O)C(OC(C)=O)C(OC(C)=O)C(C#N)OC(C)=O (configuration not stated)
inactive: [19] 106 % of control | dose: 100.0 mg/kg/injection, schedule: Q01DX001 (ip), vehicle: other 115 % of control | [20] 103 % of control | dose: 200.0 mg/kg/injection, schedule: Q01DX001 (ip), vehicle: other 102 % of control | [21] 95 % of control | dose: 400.0 mg/kg/injection, schedule: Q01DX001 (ip), vehicle: other 96 % of control | [22] 91 % of control

C=CCNC(=S)NN
inactive: dose: 6.25 mg/kg/injection, schedule: Q04DX003 (ip), vehicle: Klucel (hydroxypropylcellulose) (HPC) 115 % of control | [23] 95 % of control

OC1CCC(O)C2CCC1S2 (configuration not stated)
inactive: dose: 100.0 mg/kg/injection, schedule: Q01DX001 (ip), vehicle: steriod suspending solution 87 % of control | dose: 200.0 mg/kg/injection, schedule: Q01DX001 (ip), vehicle: steriod suspending solution 92 % of control | dose: 400.0 mg/kg/injection, schedule: Q01DX001 (ip), vehicle: steriod suspending solution 103 % of control

CC(CO)CCCC(C)C1CCC2C3CCC4CC(O)CCC4(C)C3CCC12C (configuration not stated)
inactive: [1] 95 % of control | [2] 87 % of control | [3] 90 % of control

O=C(NCc1ccccc1Cl)NC1CCCCC1
inactive: [11] 87 % of control | [12] 102 % of control | dose: 400.0 mg/kg/injection, schedule: Q04DX002 (ip), vehicle: Klucel (hydroxypropylcellulose) (HPC) 105 % of control

Oc1ccccc1C1=NCCN1
inactive: [10] 102 % of control | [11] 95 % of control | [12] 91 % of control

CS(=O)(=O)Oc1c(Cl)c(Cl)c(OS(C)(=O)=O)c(Cl)c1Cl
inactive: [7] 101 % of control | [8] 92 % of control | [9] 98 % of control

CCOC(=O)n1ccc2nc3ccccc3cc21
inactive: [24] 100 % of control | [25] 105 % of control | [26] 90 % of control

O=C(Nc1ccc([N+](=O)[O-])cc1)c1cc(Cl)c2ccccc2c1O
inactive: [13] 106 % of control | [15] 98 % of control

OC(CNc1ccc(Cl)cc1)CN1CCCCC1 (configuration not stated)
inactive: dose: 50.0 mg/kg/injection, schedule: Q04DX003 (ip), vehicle: saline 91 % of control | [20] 100 % of control | [27] 98 % of control | [21] 90 % of control

CCOC1=CCCCC1
inactive: [19] 101 % of control | [20] 103 % of control | [21] 103 % of control | [22] 101 % of control

CN(C)C1C(=O)C(C(=O)NCNC(CCS(C)=O)C(=O)O)=C(O)C2(O)C(=O)C3=C(O)c4c(O)cccc4C(C)(O)C3CC12 (configuration not stated)
inactive: [20] 91 % of control | [27] 95 % of control | [21] 91 % of control | dose: 200.0 mg/kg/injection, schedule: Q04DX003 (ip), vehicle: saline 92 % of control | [22] 91 % of control | dose: 400.0 mg/kg/injection, schedule: Q04DX003 (ip), vehicle: saline 87 % of control

CN(C)/C=N/Nc1ccc([N+](=O)[O-])cc1[N+](=O)[O-]
inactive: [13] 94 % of control | [14] 102 % of control | [15] 94 % of control | [16] 97 % of control | [17] 96 % of control | [18] 97 % of control

COC(=O)/C=C1/OC(=O)CC1(C)C
inactive: [24] 106 % of control | dose: 100.0 mg/kg/injection, schedule: Q01DX009 (ip), vehicle: saline sonified 100 % of control | [25] 104 % of control | dose: 200.0 mg/kg/injection, schedule: Q01DX009 (ip), vehicle: saline sonified 96 % of control | [26] 107 % of control | dose: 400.0 mg/kg/injection, schedule: Q01DX009 (ip), vehicle: saline sonified 100 % of control

O=[As](O)(O)CCc1ccccc1
inactive: [23] 101 % of control | dose: 25.0 mg/kg/injection, schedule: Q04DX003 (ip), vehicle: Klucel (hydroxypropylcellulose) (HPC) 108 % of control

CC(=O)NC1CCC(CCC2CCCCC2)CC1 (configuration not stated)
inactive: dose: 100.0 mg/kg/injection, schedule: Q04DX002 (ip), vehicle: saline with Tween-80 98 % of control | dose: 200.0 mg/kg/injection, schedule: Q04DX002 (ip), vehicle: saline with Tween-80 94 % of control | dose: 400.0 mg/kg/injection, schedule: Q04DX002 (ip), vehicle: saline with Tween-80 98 % of control

CCOc1cc(-c2nc3ccccc3s2)ccc1O
inactive: [4] 96 % of control | [5] 101 % of control | [6] 96 % of control

Cc1cc(C)c(CCN(C)C)c(C)c1C
inactive: [19] 103 % of control | [20] 101 % of control | [21] 101 % of control

Nc1cccc(CCCCc2ccccc2)c1
inactive: [1] 102 % of control | [2] 100 % of control

CC1=CC(C)(C2(O)c3ccccc3-c3ccccc32)C=C(C)C1
inactive: [4] 98 % of control | [5] 95 % of control | [6] 95 % of control

— PubChem BioAssay AID248 (DTP/NCI, 2004)
